{
  "source": "PubChem BioAssay (NCI)",
  "test_in_all_cases": "NCI-60 cell line screen, 48 h",
  "key": {"[1]": {"tested_on": "K-562 leukemia"}, "[2]": {"tested_on": "PC-3 prostate"}, "[3]": {"tested_on": "SK-MEL-5 melanoma"}, "[4]": {"tested_on": "NCI-H522 lung"}, "[5]": {"tested_on": "SNB-19 CNS"}, "[6]": {"tested_on": "SK-OV-3 ovarian"}, "[7]": {"tested_on": "OVCAR-5 ovarian"}, "[8]": {"tested_on": "DU-145 prostate"}, "[9]": {"tested_on": "SF-539 CNS"}, "[10]": {"tested_on": "SK-MEL-2 melanoma"}, "[11]": {"tested_on": "NCI/ADR-RES ovarian"}, "[12]": {"tested_on": "HOP-62 NSCLC"}, "[13]": {"tested_on": "CCRF-CEM leukemia"}, "[14]": {"tested_on": "M14 melanoma"}, "[15]": {"tested_on": "CAKI-1 renal"}, "[16]": {"tested_on": "MDA-N"}, "[17]": {"tested_on": "SN12C renal"}, "[18]": {"tested_on": "UACC-62 melanoma"}, "[19]": {"tested_on": "MALME-3M melanoma"}, "[20]": {"tested_on": "OVCAR-4 ovarian"}, "[21]": {"tested_on": "MDA-MB-435"}, "[22]": {"tested_on": "U251 CNS"}, "[23]": {"tested_on": "A498 renal"}, "[24]": {"tested_on": "MDA-MB-231 breast"}, "[25]": {"tested_on": "EKVX NSCLC"}, "[26]": {"tested_on": "HS 578T breast"}, "[27]": {"tested_on": "BT-549 breast"}, "[28]": {"tested_on": "COLO 205 colon"}, "[29]": {"tested_on": "SR leukemia"}, "[30]": {"tested_on": "NCI-H23 lung"}, "[31]": {"tested_on": "UO-31 renal"}, "[32]": {"tested_on": "SK-MEL-28 melanoma"}, "[33]": {"tested_on": "NCI-H460 lung"}, "[34]": {"tested_on": "HOP-92 NSCLC"}, "[35]": {"tested_on": "T-47D breast"}, "[36]": {"tested_on": "HL-60(TB) leukemia"}, "[37]": {"tested_on": "MCF7 breast"}, "[38]": {"tested_on": "RPMI-8226 leukemia"}, "[39]": {"tested_on": "OVCAR-8 ovarian"}, "[40]": {"tested_on": "NCI-H226 lung"}, "[41]": {"tested_on": "TK-10 renal"}, "[42]": {"tested_on": "SF-268 CNS"}, "[43]": {"tested_on": "SW-620 colon"}, "[44]": {"tested_on": "786-0 renal"}, "[45]": {"tested_on": "A549 NSCLC"}, "[46]": {"tested_on": "SNB-75 CNS"}, "[47]": {"tested_on": "HCT-116 colon"}, "[48]": {"tested_on": "MOLT-4 leukemia"}, "[49]": {"tested_on": "HCT-15 colon"}, "[50]": {"tested_on": "SF-295 CNS"}, "[51]": {"tested_on": "LOX IMVI melanoma"}, "[52]": {"tested_on": "KM12 colon"}, "[53]": {"tested_on": "IGROV1 ovarian"}, "[54]": {"tested_on": "OVCAR-3 ovarian"}, "[55]": {"tested_on": "UACC-257 melanoma"}, "[56]": {"tested_on": "RXF 393 renal"}, "[57]": {"tested_on": "HT29 colon"}, "[58]": {"tested_on": "ACHN renal"}},
  "note": "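48-hour exposure; five concentrations; linearly interpolated endpoints. TGI denotes the concentration required for complete inhibition of growth.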",
  "data": [
    {"smiles": "O=C1C[C@@H](Sc2ccccc2)C2(OCCO2)C2ON3CCCC[C@H]3[C@H]12", "note": "(stereo partly drawn)", "values": [
      {"measurement": "TGI", "setting": "[1]", "result": 6.79, "unit": "µM"},
      {"measurement": "TGI", "setting": "[2]", "result": 24.2, "unit": "µM"},
      {"measurement": "TGI", "setting": "[3]", "result": 20.7, "unit": "µM"},
      {"measurement": "TGI", "setting": "[4]", "result": 6.93, "unit": "µM"},
      {"measurement": "TGI", "setting": "[5]", "result": 32.1, "unit": "µM"},
      {"measurement": "TGI", "setting": "[6]", "result": "> 100", "unit": "µM"},
      {"measurement": "TGI", "setting": "[7]", "result": 33.5, "unit": "µM"},
      {"measurement": "TGI", "setting": "[8]", "result": 24.5, "unit": "µM"},
      {"measurement": "TGI", "setting": "[9]", "result": 4.5, "unit": "µM"},
      {"measurement": "TGI", "setting": "[10]", "result": 39.8, "unit": "µM"},
      {"measurement": "TGI", "setting": "[11]", "result": 18.9, "unit": "µM"},
      {"measurement": "TGI", "setting": "[12]", "result": 33, "unit": "µM"},
      {"measurement": "TGI", "setting": "[13]", "result": 4.71, "unit": "µM"},
      {"measurement": "TGI", "setting": "[14]", "result": 30.3, "unit": "µM"},
      {"measurement": "TGI", "setting": "[15]", "result": 21, "unit": "µM"},
      {"measurement": "TGI", "setting": "[16]", "result": 33.3, "unit": "µM"},
      {"measurement": "TGI", "setting": "[17]", "result": 14.8, "unit": "µM"},
      {"measurement": "TGI", "setting": "[18]", "result": 18.5, "unit": "µM"},
      {"measurement": "TGI", "setting": "[19]", "result": 22.9, "unit": "µM"},
      {"measurement": "TGI", "setting": "[20]", "result": 21.8, "unit": "µM"},
      {"measurement": "TGI", "setting": "[21]", "result": 34.7, "unit": "µM"},
      {"measurement": "TGI", "setting": "[22]", "result": "> 39.5", "unit": "µM"},
      {"measurement": "TGI", "setting": "[23]", "result": "> 95.3", "unit": "µM"},
      {"measurement": "TGI", "setting": "[24]", "result": 25.9, "unit": "µM"},
      {"measurement": "TGI", "setting": "[25]", "result": 26.1, "unit": "µM"},
      {"measurement": "TGI", "setting": "[26]", "result": 31, "unit": "µM"},
      {"measurement": "TGI", "setting": "[27]", "result": 20.7, "unit": "µM"},
      {"measurement": "TGI", "setting": "[28]", "result": 27.1, "unit": "µM"},
      {"measurement": "TGI", "setting": "[29]", "result": 4.35, "unit": "µM"},
      {"measurement": "TGI", "setting": "[30]", "result": 22.8, "unit": "µM"},
      {"measurement": "TGI", "setting": "[31]", "result": 17.3, "unit": "µM"},
      {"measurement": "TGI", "setting": "[32]", "result": 41.6, "unit": "µM"},
      {"measurement": "TGI", "setting": "[33]", "result": 28.8, "unit": "µM"},
      {"measurement": "TGI", "setting": "[34]", "result": 19.2, "unit": "µM"},
      {"measurement": "TGI", "setting": "[35]", "result": 46.8, "unit": "µM"},
      {"measurement": "TGI", "setting": "[36]", "result": 4.9, "unit": "µM"},
      {"measurement": "TGI", "setting": "[37]", "result": 14.3, "unit": "µM"},
      {"measurement": "TGI", "setting": "[38]", "result": 12.5, "unit": "µM"},
      {"measurement": "TGI", "setting": "[39]", "result": 13.9, "unit": "µM"},
      {"measurement": "TGI", "setting": "[40]", "result": 33.2, "unit": "µM"},
      {"measurement": "TGI", "setting": "[41]", "result": 13, "unit": "µM"},
      {"measurement": "TGI", "setting": "[42]", "result": 23.3, "unit": "µM"},
      {"measurement": "TGI", "setting": "[43]", "result": 14.4, "unit": "µM"},
      {"measurement": "TGI", "setting": "[44]", "result": 12.7, "unit": "µM"},
      {"measurement": "TGI", "setting": "[45]", "result": 31.4, "unit": "µM"},
      {"measurement": "TGI", "setting": "[46]", "result": 29.9, "unit": "µM"},
      {"measurement": "TGI", "setting": "[47]", "result": 16.7, "unit": "µM"},
      {"measurement": "TGI", "setting": "[48]", "result": 5.1, "unit": "µM"},
      {"measurement": "TGI", "setting": "[49]", "result": "> 29.6", "unit": "µM"},
      {"measurement": "TGI", "setting": "[50]", "result": 38.4, "unit": "µM"},
      {"measurement": "TGI", "setting": "[51]", "result": 10.1, "unit": "µM"},
      {"measurement": "TGI", "setting": "[52]", "result": 19.7, "unit": "µM"},
      {"measurement": "TGI", "setting": "[53]", "result": 19.2, "unit": "µM"},
      {"measurement": "TGI", "setting": "[54]", "result": 26.8, "unit": "µM"},
      {"measurement": "TGI", "setting": "[55]", "result": 28.1, "unit": "µM"},
      {"measurement": "TGI", "setting": "[56]", "result": 12.3, "unit": "µM"},
      {"measurement": "TGI", "setting": "[57]", "result": 15.7, "unit": "µM"},
      {"measurement": "TGI", "setting": "[58]", "result": 6.33, "unit": "µM"}
    ]}
  ]
}
